This is an account of results in publication PMC4210216, “Isolation, Purification and Molecular Mechanism of a Peanut Protein-Derived ACE-Inhibitory Peptide” (PLoS ONE, 2014).

Broadly, the IC50 is the point on the concentration scale where inhibition reaches its midpoint. The term inhibition denotes the percentage by which the read-out fell short of the control. Low values mean a response near the control, high ones a response far below the control.

No end group written: not given here.

The subject of one test is ACE. The arrangement: method as in 3 sources, ref 52 = [52]; PMID 19886677; doi:10.1021/jf901787e; 52 Guang C , Phillips RD ( 2009 ) Purification, activity and sequence of angiotensin I converting enzyme inhibitory peptide from alcalase hydrolysate of peanut flour . Journal of agricultural and food ||| ref 43 = [43]; PMID 16680798; doi:10.1002/psc.758; 43 Li GH , Wan JZ , Le GW , Shi YH ( 2006 ) Novel angiotensin I-converting enzyme inhibitory peptides isolated from Alcalase hydrolysate of mung bean protein . Journal of Peptide Science 12 : 509 – 51 ||| ref 45 = [45]; 45 Li GH , Le GW , Shi YH , Shrestha S ( 2004 ) Angiotensin I–converting enzyme inhibitory peptides derived from food proteins and their physiological and pharmacological effects . Nutrition Research. To be noted: cited from earlier work; for mode of ACE inhibition: from human serum trypsin hydrolysate.

Test [1] has as its system spontaneously hypertensive rats (SHRs). Put plainly: Long-term antihypertensive activity in SHRs (28 days, SBP). The format is in vivo, rat. To be noted: male SHR, captopril 40 mg/kg BW. The protocol: The in vivo tests for antihypertensive activity of peanut peptide was conducted using a previous method, and whole tests were conducted in Chinese Medicine Experiment Center of Hubei College of Traditional Chinese Medicine, authorized by SATCM (State Administration of Traditional Chinese Medicine, China). The male spontaneously hypertensive rats (SHRs) was used for the experimental model while the average weight of each rat was between 210 and 240 g and four rats were numbered as one group for feeding. These rats had free access to food and drink in their cages located in a 25°C room temperature with 12 h of light cycle. After 1 week for adaptation to this environment, the determination of blood pressure was conducted and the comparison of different group was investigated. The SHRs were randomly divided into five groups, named blank control group, low-dose group (100 mg/kg body weight (BW)), intermediate-dose group (500 mg/kg BW), high-dose group (1000 mg/kg BW) and drug control group (40 mg Captopril/kg BW).
Long-term antihypertensive activity: Through the same method of sample preparation, these SHRs were feeded at the same time (9∶00 am–10∶00 am) of each day and the feeding continued for 28 days. […] Each SHR was measured for three times. […]

The target of test [2] is T1, ACE (protease from rabbit lung) (Oryctolagus cuniculus, UniProt P12822).
T1 construct: ACE (protease from rabbit lung); purchased Sigma Chemical Co., St. Louis, MO, USA; host or cells: rabbit lung (tissue-derived)
T1 sequence (P12822 34-1310): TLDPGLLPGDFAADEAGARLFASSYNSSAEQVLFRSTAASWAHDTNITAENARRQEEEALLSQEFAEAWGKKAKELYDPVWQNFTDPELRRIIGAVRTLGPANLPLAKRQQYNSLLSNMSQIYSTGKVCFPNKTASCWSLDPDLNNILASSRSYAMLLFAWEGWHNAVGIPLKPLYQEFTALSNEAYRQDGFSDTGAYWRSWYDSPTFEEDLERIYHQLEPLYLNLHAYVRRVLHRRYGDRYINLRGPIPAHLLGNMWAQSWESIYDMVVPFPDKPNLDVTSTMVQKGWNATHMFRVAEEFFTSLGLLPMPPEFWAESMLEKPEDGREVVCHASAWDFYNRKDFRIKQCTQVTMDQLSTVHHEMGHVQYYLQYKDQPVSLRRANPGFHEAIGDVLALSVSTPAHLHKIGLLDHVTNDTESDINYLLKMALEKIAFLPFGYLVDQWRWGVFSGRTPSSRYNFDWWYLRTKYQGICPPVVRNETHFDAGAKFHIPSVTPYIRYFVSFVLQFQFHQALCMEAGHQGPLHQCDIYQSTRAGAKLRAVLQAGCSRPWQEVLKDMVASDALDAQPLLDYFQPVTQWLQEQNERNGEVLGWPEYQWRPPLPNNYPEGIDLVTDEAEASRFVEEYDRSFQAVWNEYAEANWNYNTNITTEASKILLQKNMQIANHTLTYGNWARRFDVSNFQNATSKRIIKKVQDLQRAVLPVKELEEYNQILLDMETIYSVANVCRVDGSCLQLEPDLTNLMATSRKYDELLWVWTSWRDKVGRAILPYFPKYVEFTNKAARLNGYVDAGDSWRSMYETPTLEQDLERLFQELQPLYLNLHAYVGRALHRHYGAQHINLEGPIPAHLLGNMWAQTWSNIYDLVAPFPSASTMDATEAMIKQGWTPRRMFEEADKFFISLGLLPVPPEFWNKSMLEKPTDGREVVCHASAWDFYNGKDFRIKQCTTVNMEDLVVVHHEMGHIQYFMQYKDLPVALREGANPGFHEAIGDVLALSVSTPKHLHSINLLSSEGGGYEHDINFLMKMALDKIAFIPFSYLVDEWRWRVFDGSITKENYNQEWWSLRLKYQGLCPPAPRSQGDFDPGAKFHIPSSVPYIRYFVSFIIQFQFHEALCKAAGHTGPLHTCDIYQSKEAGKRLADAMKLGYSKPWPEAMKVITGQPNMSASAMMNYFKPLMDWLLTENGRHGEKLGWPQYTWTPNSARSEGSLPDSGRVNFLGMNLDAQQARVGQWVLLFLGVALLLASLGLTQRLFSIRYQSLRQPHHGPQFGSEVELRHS
Kind of test: ACE inhibiting activity (in vitro tests), HHL substrate, HPLC. The format is biochemical. Particulars: HEPES pH 8.3, 37°C, 30 min. From the text:
PPI was purchased from Lanshan Group (Shandong, China). The following commercial enzymes were obtained: Alcalase (protease)-(Novo Industri A/S, Bagsvaerd, Denmark); N120P (protease)-(Kerry Co., Tralee, Ireland) and ACE (protease from rabbit lung)-(Sigma Chemical Co., St. Louis, MO, USA). Hippuryl-histidyl-leucine (HHL) was purchased from Sigma Chemical Co. (St. Louis, MO, USA). Methyl Cyanide (Merck & Co., Inc., Rahway, NJ, USA) and trifluoroacetic acid (TFA) (Fluka Co., Buchs, Switzerland) were purchased and were of chromatographic grade. All the other materials were of analytical grade and were used as received.
Determination of ACE inhibiting activity (in vitro tests)
ACE inhibiting activity was measured using Cushman and Cheung’s method with slight modification, [34]. Specifically, 20 µL of 4-hydroxyethylpiperazine ethane sulfonic acid (HEPEs) buffer solution (pH 8.3) was mixed with 20 µL sample solution in a 0.5 ml centrifuge tube. Then, 15 µL ACE solution was added into this tube and warmed at 37°C for 3 min. […]
The ACE inhibiting activity (%) was expressed in terms of hippuric acid content and was calculated using (1). […]
The dried peanut peptide powder having molecule weight below 1 kDa was first dissolved in water to make a peptide solution with 100 mg/ml concentration. […] The IC50 of each fraction was determined as in vitro tests.

For Leu-Ile-Tyr, the “mode of ACE inhibition” value with ACE is given as “non-competitive”.

For the compound YLYEIAR, the “mode of ACE inhibition” value in the test on ACE is listed as “non-competitive”.

Take `C[C@H](CS)C(=O)N1CCC[C@H]1C(=O)O` [captopril]: in test [1], the “antihypertensive activity compared with peanut peptide, long term” value was “stronger antihypertensive activity during the long term experiment”.

As for VTPALR, in the test with ACE (from mung bean protein isolate using alcalase), the IC50 was 82.4 µM.

With “Lys-Ala-Phe-Arg [peanut tetrapeptide of Guang and Phillips]”, the ACE inhibiting activity in the test on ACE (peanut tetrapeptide) is 16.9 µg/mL.

On to “KLYMRP [Fraction P8, Lys-Leu-Tyr-Met-Arg-Pro]”, for which, in test [2] (printed in parentheses beside the mg/mL value, read-out: IC50 (ACE inhibition)), the IC50 amounted to 6.42 µM. This compound yielded an inhibition at 100 µg/mL in test [2] (peptide concentration 100 µg/ml, HPLC UV 228 nm) of 85.8%.
